Values quoted from earlier work in US20250114351A1, “5-HT2C RECEPTOR MODULATING AGENTS FOR THE TREATMENT OF NEURODEGENERATIVE, MENTAL, COGNITIVE AND AUTOIMMUNE CNS DISORDERS” (priority 2022, published 2025).

Columns and labels:
[1] = target: 5-HT2B (Homo sapiens, UniProt P41595)
[2] = target: 5-HT2A (Homo sapiens, UniProt P28223)
[3] = target: T1, 5-HT2C (Homo sapiens, UniProt P28335)
T1 sequence (P28335 33-458): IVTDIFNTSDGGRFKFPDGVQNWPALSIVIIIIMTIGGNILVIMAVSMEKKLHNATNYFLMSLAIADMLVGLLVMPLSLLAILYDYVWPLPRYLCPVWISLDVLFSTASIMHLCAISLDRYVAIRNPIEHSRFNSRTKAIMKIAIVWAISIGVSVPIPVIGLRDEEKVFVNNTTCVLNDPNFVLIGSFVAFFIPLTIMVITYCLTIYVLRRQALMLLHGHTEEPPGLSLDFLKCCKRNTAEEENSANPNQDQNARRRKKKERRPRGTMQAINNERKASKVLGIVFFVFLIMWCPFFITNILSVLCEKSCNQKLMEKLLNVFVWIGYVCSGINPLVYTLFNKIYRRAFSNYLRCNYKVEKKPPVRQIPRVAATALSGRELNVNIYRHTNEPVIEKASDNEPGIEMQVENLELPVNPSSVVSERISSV

5-HT2A, sequence (P28223 whole entry, species assumed): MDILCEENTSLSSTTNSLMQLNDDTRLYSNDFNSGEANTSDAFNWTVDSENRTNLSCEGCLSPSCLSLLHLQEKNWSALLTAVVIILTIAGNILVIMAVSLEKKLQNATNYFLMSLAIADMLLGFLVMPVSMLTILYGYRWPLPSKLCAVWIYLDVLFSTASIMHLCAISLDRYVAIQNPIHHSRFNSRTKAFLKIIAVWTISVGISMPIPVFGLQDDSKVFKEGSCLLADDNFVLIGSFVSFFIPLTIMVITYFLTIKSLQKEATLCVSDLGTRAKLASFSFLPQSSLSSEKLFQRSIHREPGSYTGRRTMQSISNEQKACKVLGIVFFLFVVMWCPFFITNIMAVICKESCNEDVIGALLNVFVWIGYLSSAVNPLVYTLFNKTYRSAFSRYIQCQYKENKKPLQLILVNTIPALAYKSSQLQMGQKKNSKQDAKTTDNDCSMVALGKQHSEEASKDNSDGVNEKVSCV
5-HT2B, sequence (P41595 whole entry, species assumed): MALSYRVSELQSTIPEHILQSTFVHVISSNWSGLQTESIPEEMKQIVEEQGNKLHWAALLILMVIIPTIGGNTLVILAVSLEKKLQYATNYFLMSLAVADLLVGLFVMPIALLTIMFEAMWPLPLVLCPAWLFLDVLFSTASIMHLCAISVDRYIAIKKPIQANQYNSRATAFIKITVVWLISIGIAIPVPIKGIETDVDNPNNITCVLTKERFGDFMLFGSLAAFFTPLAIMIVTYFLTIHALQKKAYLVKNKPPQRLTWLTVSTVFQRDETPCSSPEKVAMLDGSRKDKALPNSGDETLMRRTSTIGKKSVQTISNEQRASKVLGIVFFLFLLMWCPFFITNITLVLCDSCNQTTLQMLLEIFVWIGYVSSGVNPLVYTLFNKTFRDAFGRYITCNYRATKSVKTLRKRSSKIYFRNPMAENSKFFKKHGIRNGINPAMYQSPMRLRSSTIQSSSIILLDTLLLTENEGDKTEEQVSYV

Compound	EC50 [1]	5-HT2A Emax [2]	EC50 [2]	5-HT2C Emax [3]	5-HT2B Emax [1]
c1cc2c3c(c1)[C@H]1CCC[C@H]1N3CCNC2 [WAY-163909, (7bR,10aR)-1,2,3,4,8,9,10,10a-octahydro-7bH-cyclopenta-[b][1,4]diazepino[6,7,1hi]indole]	185 ± 105 nM				
Clc1cccc(COc2cncc(N3CCNCC3)n2)c1 [CP-809101, 2-(3-Chlorobenzyloxy)-6-(piperazin-1-yl)pyrazine]		67%	153 nM		
C[C@H]1CNCCc2ccc(Cl)cc21 [Lorcaserin, (1R)-8-chloro-2,3,4,5-tetrahydro-1-methyl-1H-3-benzazepine]		75%		100%	
c1cc2c3c(c1)[C@H]1CCC[C@H]1CN3CCNC2 [Vabicaserin]			1650 nM		
C[C@H](N)Cn1ccc2cc(F)c(Cl)cc21 [RO 60-01752, (S)-2-(6-chloro-5-fluoroindol-1-yl)-1-methylethylamine]		91 ± 5%		88 ± 20%	130 ± 30%
